Like-named read-outs stand apart in the source and are kept apart here.

The text below walks through data of patent US7629154B2, “Deinococcus N-acylamino acid racemase and use of preparing L-amino acid” (National Chunghsing University, priority 2005, dated 2009).

Assay [1] has as its target T1, N-acylamino acid racemase (NAAAR) (Deinococcus radiodurans, UniProt Q9RYA6, A252S/A94S/G148D/K158R/P315S). Format: biochemical, Deinococcus radiodurans NCHU1003.
Assay [2] has as its system L-N-carbamoylase/N-acylamino acid racemase. The assay is described as follows: Conversion of NCa-D-HPA with enzymes L-N-carbamoylase/N-acylamino acid racemase. The class given is biochemical. Conditions: start 10 mM N-carbamoyl-D-HPA, 50° C., pH 8.0. An excerpt:
NCAU (5′-[…]-3′, SEQ ID NO: 5), containing BamHI restriction site; and NCAD (5′-[…]-3′, SEQ ID NO:6), containing HindIII restriction site. The nucleotide sequences encoding the NAAAR and L-N-carbamoylase were amplified from Deinococcus radiodurans NCHU1003 and Bacillus kaustophilus CCRC11223 chromosome, respectively, by PCR technology. The PCR products contained T5 promoter, lac operator and 6×his-tag sequence at the 5′-end and A transcriptional terminator at the 3′-end. The PCR products were cloned in the pQE30 expression vector. The resultant plasmid, pQEarlnca, was transformed into E. coli JM109 for inductive expression.
The reaction mixture containing 10 mM substrate N-carbamoyl-D-HPA, 0.5 mM CoCl2, 50 mM Tris-HCl buffer (pH 8.0), and the enzymes NAAAR and L-N-carbamoylase isolated from induced transformant was incubated at 50° C. for carrying out the conversion. After analysed by the Chiral-HPLC method, it is shown that the co-expressed enzymes could completely convert the original substrate to the final product L-amino acid in 2 to 3 h in one single reaction.

In assay [3] the target is T1, N-acylamino acid racemase (NAAAR). The assay is described as follows: Substrate selectivity / enzymetic activity of NAAAR by Chiral-HPLC. The class given is biochemical, Deinococcus radiodurans NCHU1003. Conditions: for Specific activity: 10 mM substrate, 0.5 mM CoCl2, 50 mM Tris-HCl pH 8.0, 50° C., 30 min; for Relative activity: percentage of the enzyme activity using N-acetyl-D-Met as substrate. How it is done: The enzymetic activity was determined by measuring the production profile of conversion product at 215 nm via HPLC method as described by Tokuyama et al (1994). The reaction buffer containing 10 mM substrate, 0.5 mM CoCl2 and appropriate amount of the enzyme in 50 mM Tris-HCl buffer (pH 8.0) was incubated at 50° C. for 30 min, and the reaction was terminated by placing in boiling water for 5 min. The enzymetic activity was then measured by a Chiral-HPLC method. The Km values (mM) were determined from the original velocity data and the changes in NAc-D-HPA or NAc-D-HPA concentration. The unit NAAAR activity was defined as the enzyme amount required for catalysing 1 μmole of product formation under used condition. As described in the following Table 1, the specific activity of NAAAR for substrate N-carbamoyl-D-HPA was 1.31 U/mg, see Table 1.

Where [4] appears, read: compound at 2 mM, percentage of activity with CoCl2, substrate 10 mM N-carbamoyl-D-HPA, 50° C., 30 min.

T1 sequence (Q9RYA6 whole entry A94S/G148D/K158R/A252S/P315S): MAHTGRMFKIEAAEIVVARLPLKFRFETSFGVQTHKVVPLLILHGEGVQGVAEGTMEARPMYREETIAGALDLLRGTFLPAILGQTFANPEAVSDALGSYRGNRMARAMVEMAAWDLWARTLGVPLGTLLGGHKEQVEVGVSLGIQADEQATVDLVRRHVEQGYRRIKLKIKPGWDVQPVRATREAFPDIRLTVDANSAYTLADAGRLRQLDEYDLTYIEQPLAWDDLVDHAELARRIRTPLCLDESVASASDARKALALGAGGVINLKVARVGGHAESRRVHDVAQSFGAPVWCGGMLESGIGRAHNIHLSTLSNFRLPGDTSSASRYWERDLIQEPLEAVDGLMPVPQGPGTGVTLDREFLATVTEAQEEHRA

With `[Ca+2].[Cl-].[Cl-]` [CaCl2], the Relative activity in assay [1] (setting [4]) was 0%.
As for `[Cl-].[Cl-].[Co+2]` [CoCl2], in assay [1], the “Effect of bivalent metal ion on NAAAR enzymetic activity” value (“Effect of bivalent metal ion” for short) is “improved enzymetic activity” and the Relative activity came out at 100%.
As for `[Cl][Cu][Cl]` [CuCl2], the Relative activity in assay [1] (setting [4]) stood at 0%.
As for `O=C(O)CN(CCN(CC(=O)O)CC(=O)O)CC(=O)O` [EDTA], the Relative activity in assay [1] (compound at 10 mM, percentage of activity with CoCl2, substrate 10 mM N-carbamoyl-D-HPA, 50° C., 30 min) is on record as 0%.
For `N[C@@H](CCc1ccccc1)C(=O)O` [L-HPA, L-homophenylalanine], the “Concentration in conversion reaction” value is reported as 4.96 mM in assay [2] (time 0.5 hour), 8.84 mM in assay [2] (time 1.0 hour) and 10 mM in assay [2] (time 2.0 hour).
Regarding `[Cl-].[Cl-].[Mg+2]` [MgCl2], the Relative activity in assay [1] (setting [4]) worked out at 20.5%.
In the case of `[Cl][Mn][Cl]` [MnCl2], in assay [1] (setting [4]), the Relative activity is listed as 79.1%. Moreover, the “Effect of bivalent metal ion” value in assay [1] (in words) is “improved enzymetic activity”.
For `CC(=O)N[C@H](CCc1ccccc1)C(=O)O` [N-acetyl-D-HPA], in assay [3], the Specific activity was 9.17 U/mg and the Relative activity amounted to 143.28%.
In the same order, the values of `CSCC[C@@H](NC(C)=O)C(=O)O` [N-acetyl-D-Met] are 6.40 U/mg and 100%.
In the same order, the values of `CC(=O)N[C@H](Cc1ccccc1)C(=O)O` [N-acetyl-D-Phe] are 1.98 U/mg and 30.94%.
The matching figures for `CC(=O)N[C@@H](CCC(N)=O)C(=O)O` [N-acetyl-L-Gln]: 0.93 U/mg and 14.53%.
With `CC(=O)N[C@@H](CCc1ccccc1)C(=O)O` [N-acetyl-L-HPA], in assay [3], the Specific activity was 11.97 U/mg and the Relative activity turned out to be 187.03%.
Turning to `CC(=O)N[C@@H](CC(C)C)C(=O)O` [N-acetyl-L-Leu], in assay [3], the Specific activity is 0.45 U/mg and the Relative activity is recorded as 7.03%.
In the same order, the values of `CSCC[C@H](NC(C)=O)C(=O)O` [N-acetyl-L-Met] are 8.04 U/mg and 125.63%.
For the compound `CC(=O)N[C@@H](Cc1ccccc1)C(=O)O` [N-acetyl-L-Phe], in assay [3], the Specific activity was 1.55 U/mg and the Relative activity amounted to 24.22%.
The matching figures for `CC(=O)N[C@@H](Cc1c[nH]c2ccccc12)C(=O)O` [N-acetyl-L-Trp]: 0.87 U/mg and 13.13%.
In turn, `[2H]NC(=O)N[C@@H](CCc1ccccc1)C(=O)O` [N-carbamoyl-D-HPA] registered a Specific activity in assay [3] of 1.31 U/mg. The Relative activity in assay [3] worked out at 20.46%. Further, the “Concentration in conversion reaction” value in assay [2] (time 0.5 hour) came to 4.16 mM; in assay [2] (time 1.0 hour) it was 1.16 mM; in assay [2] (time 2.0 hour), 0 mM.
For the compound `NC(=O)N[C@@H](CCc1ccccc1)C(=O)O` [N-carbamoyl-L-HPA], in assay [3], the Specific activity is reported as 1.91 U/mg. Also, the Relative activity in assay [3] is given as 29.84%. Further, the “Concentration in conversion reaction” value was determined as 0.88 mM in assay [2] (time 0.5 hour), 0 mM in assay [2] (time 1.0 hour) and 0 mM in assay [2] (time 2.0 hour).
For the compound `O=C(CCl)N[C@@H](Cc1ccccc1)C(=O)O` [N-chloroacetyl-L-Phe], in assay [3], the Specific activity was determined as 1.16 U/mg and the Relative activity came to 18.13%.
For the compound `[Cl][Ni][Cl]` [NiCl2], in assay [1] (setting [4]), the Relative activity is recorded as 40.6%. In addition, the “Effect of bivalent metal ion” value in assay [1] (in words) was “improved enzymetic activity”.
On to `[Cl-].[Cl-].[Zn+2]` [ZnCl2], for which, in assay [1] (setting [4]), the Relative activity worked out at 19.7%.
